Experiments:
[1] = test system: squamous cell carcinoma cultures; test: Cell growth inhibition, MTT assay, carcinoma; format: cell-based, human; conditions: 18 hours treatment, 72 hours total growth time
Method: FIG. 6C: Carcinoma cells and HDF's were seeded overnight into 96 well plates at 2000 and 6000 cells per well respectively. Cisplatin preparations were added to wells for 18 hours as noted on the graph than washed out. After 72 hours cell viability of assessed by a commercial MTT assay (WST assay, Boehringer Mannheim). Wells were executed in duplicate.
Nanocapsules were prepared as described in Example 1 to encapsulate cisplatin, a […] molecule and a common cancer chemotherapeutic with serious side effects. A coating weight ratio of 1:100 was used and irregular nanocapsules of 29±3 nm were produced. […] Cells were seeded overnight into 96 well plates, treated for 18 hours with increasing amounts of encapsulated or unencapsulated drug, then assessed for cell growth inhibition using an MTT assay […] for total growth time of 72 hours. Results are illustrated in FIG. 6C.

[2] = test system: human dermal fibroblast (HDF) cultures; test: Cell growth inhibition, MTT assay, fibroblasts; format: cell-based; conditions: 18 hours treatment, 72 hours total growth time
Method: Cells were seeded overnight into 96 well plates, treated for 18 hours with increasing amounts of encapsulated or unencapsulated drug, then assessed for cell growth inhibition using an MTT assay 48 hours later for total growth time of 72 hours.

N.N.[Cl][Pt][Cl] [unencapsulated drug, cisplatin]
inhibition concentration (IC50) [1]: 525 µg/mL | Cell death of nontarget cells [2]: killed

From patent US20030170893A1, “NANOCAPSULE ENCAPSULATION SYSTEM AND METHOD” (Genesegues, Inc., priority 2000, published 2003)
